{
  "source": "patent US20140199346A1",
  "about": "(priority 2009, published 2014)",
  "key": {"T cells": {"tested_on": "T cells", "set-up": "species or system mice", "conditions": "mouse, in vivo"}, "[1]": {"tested_on": "H1N1 subtype of influenza virus A/PR/8", "assay": "Test Example 4: virus titer in lung of mouse (plaque count on MDCK cells)", "assay_type": "in vivo, mice", "description": "In order to study mechanisms of the effects shown in Test Examples 1 to 3, influences on a virus titer in the lung of a mouse infected with the influenza virus were examined. Specifically, test solutions were prepared for the test groups and control group shown in Table 7 below, respectively, and orally administered, and the virus titer in the lung of each mouse infected with the influenza virus was examined. It should be noted that the phrase “dead bacterial cells of EF lactic acid bacterium” in the table means a commercially available heat-sterilized bacterial cell powder of Enterococcus faecalis.\nThat is, the mice were infected with the influenza virus in the same manner as in Test Example 2 except that the period after the beginning of administration of the test solutions was changed to one week. […] In the case of Test group 14, the test was carried out in the same manner as in Test group 13 except that the dead bacterial cells of the lactic acid bacterium (6.7×10^9 cells) were used in combination as a suspension in 200 μL of the culture solution of Aureobasidium. In addition, in the case of Test group 15, to which only oseltamivir was administered, in order to carry out comparison with the maximum effect of administration of only oseltamivir, oseltamivir was orally administered continuously every day (morning and evening, in an amount of 200 μL per dose) after virus infection.\nThe virus titer in the lung of a mouse was measured as follows.\nOn day 1, day 3, and day 5 of virus infection, three mice of each group were dissected, and the lung washed with PBS to remove blood was collected. The collected lung was crushed, and the tissue was separated as a cell suspension and then centrifuged at 5,000 rpm for 10 minutes. The supernatant was collected and used as a sample. The collected sample was diluted serially in 10-fold steps with 1×MEM to concentrations ranging from 10^−1 to 10^−6. On the other hand, MDCK cells were cultured from the previous day, and a state in which the MDCK cells (one sample: one 12-well plate) were proliferated to confluency was confirmed. Then, the medium of the MDCK cells was removed, and the cells were washed with 1 ml of PBS. PBS used for washing was removed, and each of the samples diluted serially was added in an amount of 100 μL, and then the plate was allowed to stand still in a 5% CO2 incubator (37° C.) for one hour. During incubation, the plate was shaken every 15 minutes to prevent the cells from drying. Subsequently, 2×MEM was mixed with an equal amount of a 1.6% agar solution, and trypsin was added so as to reach a final concentration of 0.0005% to prepare a MEM-agar solution. The solution was warmed in a water bath at 42° C. One hour later, the virus solution was removed, and the cells were washed with 1 ml of PBS. The prepared MEM-agar solution was added to each well in an amount of 1 ml, and the plate was allowed to stand for a while until the agar was solidified. After that, the cells were cultured in a 5% CO2 incubator (35° C.), and 48 hours later, the number of plaques was counted."}, "[2]": {"tested_on": "H1N1 subtype of influenza virus A/PR/8", "assay": "Test Example 2: oral administration to mice infected with influenza virus (2,000 pfu/mouse), body weights and survival rates", "assay_type": "in vivo", "description": "It should be noted that the phrase “dead bacterial cells of EF lactic acid bacterium” in the table means a commercially available heat-sterilized bacterial cell powder of Enterococcus faecalis.\nInfection of mice used as experimental animals with the influenza virus was carried out so that the virus titer was twice as large as that in Test Example 1. That is, the infection was carried out in the same manner as in Test Example 1 except that a diluted virus solution having a virus titer of 4×10^4 pfu/mL was injected from both nasal cavities alternately using a micropipette in an amount of 50 μL (2,000 pfu/mouse).\nThat is, in the case of each of Test groups 3 to 5 and Control group 2, the test solution was orally administered every day during the test period by the sonde method once a day in an amount of 200 μL. […]\nThe body weights of the mice after infection with the virus were measured every day, and transition of the body weights and survival rates were determined."}, "NK cells": {"tested_on": "NK cells", "set-up": "species or system mice", "conditions": "mouse, in vivo"}, "[3]": {"tested_on": "H1N1 subtype of influenza virus A/PR/8", "assay": "Test Example 1: oral administration to mice infected with influenza virus (1,000 pfu/mouse), body weights and survival rates", "assay_type": "in vivo", "description": "Test solutions were prepared for the test groups and control group shown in Table 1 below, respectively, and effects of oral administration of the solutions on mice infected with an influenza virus were examined. It should be noted that “Tamiflu dry syrup 3%” (product name, Chugai Pharmaceutical Co., Ltd.) was used as an anti-influenza drug oseltamivir.\nAs experimental animals, mice (C57BL/6NJc1, male, 6 weeks old) were used, and as the influenza virus, H1N1 subtype of influenza virus A/PR/8 was used. Infection of the mice with the influenza virus was carried out as follows. That is, the mice were placed in a container filled with isoflurane, and taken out after confirming that their breathing became slow. […] After confirming that the mice recovered from anesthesia, the mice were returned to breeding cages.\nIt should be noted that the culture solution of Aureobasidium (Test group 1) was orally administered every day during the test period by a sonde method once a day in an amount of 200 μL. […] The body weights of the mice after infection with the virus were measured every day, and transition of the body weights and survival rates were determined."}},
  "note": "Entries after “also recorded” stand apart in the source; their conditions may differ.",
  "data": [
    {"smiles": "CCOC(=O)C1=C[C@@H](OC(CC)CC)[C@H](NC(C)=O)[C@@H](N)C1", "note": "[Test group 2, oseltamivir]", "values": [
      {"measurement": "number of activated T cells relative to Control group 5", "setting": "T cells", "result": "about one-third"},
      {"measurement": "ratio of activated T cells in the T cells", "setting": "T cells", "result": 7.3, "unit": "%"},
      {"measurement": "Comparison of virus titers (virus titer for administration of PBS on each day after infection is defined as 1)", "setting": "[1]; 1 day after infection", "result": "1/5"},
      {"measurement": "Comparison of virus titers (virus titer for administration of PBS on each day after infection is defined as 1)", "setting": "[1]; 3 days after infection", "result": "1/53"},
      {"measurement": "Comparison of virus titers (virus titer for administration of PBS on each day after infection is defined as 1)", "setting": "[1]; 5 days after infection", "result": "1/89"},
      {"measurement": "mouse lung virus titer", "setting": "[1]; day 1 of infection", "result": 5.88, "unit": "log10 PFU"},
      {"measurement": "increase of lung virus titer as compared to day 1 of infection", "setting": "[1]; day 3 of infection", "result": 15.4, "unit": "fold"},
      {"measurement": "mouse lung virus titer", "setting": "[1]; day 3 of infection", "result": 6.83, "unit": "log10 PFU"},
      {"measurement": "increase of lung virus titer as compared to day 1 of infection", "setting": "[1]; day 5 of infection", "result": 122, "unit": "fold"},
      {"measurement": "mouse lung virus titer", "setting": "[1]; day 5 of infection", "result": 7.76, "unit": "log10 PFU"},
      {"measurement": "body weights decreased by up to", "setting": "[2]; mice whose body weight decreased", "result": "about 34%"},
      {"measurement": "mice died during the test period", "setting": "[2]; oral, until day 17 of infection", "result": 50, "unit": "%"},
      {"measurement": "ratio of NK cells in viable cells in the lung", "setting": "NK cells", "result": "about 1.8%"},
      {"measurement": "ratio of NK cells in viable cells relative to Control group", "setting": "NK cells", "result": "about one-quarter"},
      {"measurement": "ratio of activated NK cells in the NK cells", "setting": "NK cells", "result": 46.2, "unit": "%"},
      {"measurement": "survival rate", "setting": "[3]; 1,000 pfu/mouse, oral, until day 14 of infection, 3 mice", "result": 100, "unit": "%"},
      {"measurement": "body weight increase at the end of the test (day 14 of infection) as compared to the first day of infection", "setting": "[3]; individual mouse, 1,000 pfu/mouse", "result": 5, "unit": "%"},
      {"measurement": "body weight at completion of the test", "setting": "[3]; individual mouse, after recovery, day 14 of infection", "result": "same body weight as that on the first day of infection"},
      {"measurement": "body weight decrease at completion of the test as compared to the first day of infection", "setting": "[3]; individual mouse, day 14 of infection", "result": 3, "unit": "%"},
      {"measurement": "body weight decreased by up to", "setting": "[3]; individual mouse, maximum loss after infection, 1,000 pfu/mouse", "result": "about 20%; also recorded: about 25%"}
    ]}
  ]
}
